Assay results as given in patent US20050119324A1, “Methods of treating atherosclerosis using NF-kB inhibitors” (Wyeth, priority 2003, published 2005).

How the values were obtained:
[1] = test system: apolipoprotein E-deficient C57/B1J (apo E KO) mice; assay: Aortic atherosclerosis quantification (Oil Red O, en face, aortic arch) in ovariectomized apoE KO mice on a high fat diet; format: in vivo; details: atherogenic diet 6 weeks, oral dosing in feed, EE 12 μg/kg/d, Examples 3 or 5 at 10 or 25 mg/kg/d, N=12
Description: All animal procedures were performed under strict compliance to IACUC guidelines. Four to six-week old female apolipoprotein E-deficient C57/B1J (apo E KO) mice were ovariectomized by the vendor (Taconic) and delivered to Wyeth within 2 days of surgery. The animals were housed in shoe-box cages and were allowed ad lib food and water. After 3 days acclimation, the animals were randomized by weight into 8 groups (N=12 mice per group). The animals were dosed in the feed with the indicated compounds during the entire course of the study. Dosing at the indicated levels was achieved by blending the compounds with a sucrose vehicle (30 g per 2 kg feed) prior to mixing into the feed. Ethinyl estradiol was used as a positive reference compound and was dosed at 12 μg/kg/d. […] The quantity of compound added to the feed was based on the food consumption rate and the body weights of the animals, which was determined every week. […]
Aortic Atherosclerosis Quantification-The mice were euthanized by anesthesia overdose and the vascular tree was perfused first with 2 ml phosphate buffered saline (pH 7.4), then with 2 ml formalin. For quantification of aortic lesions, aortas were carefully isolated and placed in formalin fixative for 48-72 hours before handling. […] The lesions were quantified en face after staining along the aortic arch using the Image-Pro Plus, Media Cybernetics software. […]

[2] = Lipoprotein determinations (total cholesterol, VLDL, HDL by FPLC) in ovariectomized apoE KO mice on a high fat diet; format: in vivo; details: atherogenic diet 6 weeks, oral dosing in feed
Description: All animal procedures were performed under strict compliance to IACUC guidelines. Four to six-week old female apolipoprotein E-deficient C57/B1J (apo E KO) mice were ovariectomized by the vendor (Taconic) and delivered to Wyeth within 2 days of surgery. The animals were housed in shoe-box cages and were allowed ad lib food and water. After 3 days acclimation, the animals were randomized by weight into 8 groups (N=12 mice per group). The animals were dosed in the feed with the indicated compounds during the entire course of the study. Dosing at the indicated levels was achieved by blending the compounds with a sucrose vehicle (30 g per 2 kg feed) prior to mixing into the feed. Ethinyl estradiol was used as a positive reference compound and was dosed at 12 μg/kg/d. Other groups of animals were dosed with the compounds of Example 3 or Example 5 at either 10 or 25 mg/kg/d. Control animals received vehicle (sucrose) alone in the feed. The quantity of compound added to the feed was based on the food consumption rate and the body weights of the animals, which was determined every week. The feeders employed prevented any spillage, so that the food consumption rate was accurate. The animals were fed a Casein-based rodent chow meal (Purina #5K96M) for the first week of the study. The animals were then challenged with a casein-based high fat (HF) diet for week 2 to week 7 of the study. The HF diet (#591-A) was prepared by Purina and contained 1.5% cholesterol, 20% fat as cocoa butter and contained no cholic acid. At the end of the study period, the animals were euthanized and plasma samples obtained. The aortas were perfused via the left ventricle first with buffered saline and then with neutral buffered 10% formalin solution.
Lipoprotein Determinations—Total cholesterol and triglycerides were determined using enzymatic methods with commercially available kits from Boehringer Mannheim and Wako Biochemicals, respectively, and analyzed with the Boehringer Mannheim Hitachii 911 Analyzer. Separation and quantitation of plasma lipoproteins were performed using FPLC size fractionation. Briefly, 50-100 μl serum was filtered and injected into Superose 12 and Superose 6 columns connected in series and eluted at a constant flow rate using 0.15 M NaCl. Areas of each curve representing VLDL, LDL and HDL were integrated using Waters Millennium™ software, and each lipoprotein fraction was quantified by multiplying the Total Cholesterol value by the relative percent area of each respective chromatogram peak.

SMILES	melting point [°C]	extent of aortic fatty streak involvement [1]	VLDL-C (FIG. 2) [2]	serum HDL-C (FIG. 2) [2]	serum total cholesterol (FIG. 2) [2]
CC1c2cc(F)ccc2-c2ccccc2N1S(=O)(=O)c1ccc(O)cc1 (stereo not shown) [Example 3, 4-[(8-Fluoro-6-methylphenanthridin-5(6H)-yl)sulfonyl]phenol]	188	significant decrease	increase	significantly lower	no effect
COc1cc(OC)cc(N2CCN(C(=O)[C@](C)(C#N)[C@H](c3ccccc3OC)c3cccc4ccccc34)CC2)c1 [Example 4, (S)-3-[4-(3,5-dimethoxyphenyl)piperazin-1-yl]-2-[(S)-(2-methoxyphenyl)(1-naphthyl)methyl]-2-methyl-3-oxopropanenitrile]	186 to 188	–	–	–	–
COc1ccccc1[C@H](c1cccc2ccccc12)[C@@](C)(C#N)C(=O)N1CCC(c2cccc(C(F)(F)F)c2)CC1 [Example 5, (S,S)-3-(2-methoxyphenyl)-2-methyl-3-(1-naphthyl)-2-({4-[3-(trifluoromethyl)phenyl]piperidin-1-yl}carbonyl)propanenitrile]	–	significant decrease	increase	significantly lower	no effect
